The results in this text go back to US20260265256A1 (IMPACT THERAPEUTICS (SHANGHAI), INC., priority 2023, published 2026).

Bounds are passed on as bounds.

For test [1], the target named is recombinant poly(ADP-ribose) polymerase 2 (PARP2) (Homo sapiens, UniProt Q9UGN5). The test is described as follows: PARP2 chemiluminescent assay. As to conditions: PARP2 enzyme activity, chemiluminescence, 40 ng enzyme/well. Type of test: biochemical. The protocol:
(§1) The solution of recombinant poly(ADP-ribose) polymerase 1 and 2 (PARP1 and PARP2) (40 ng enzyme/well) and the compounds to be tested were mixed, respectively. The solutions were added to a 96-well plate coated with histone mixture, incubated at room temperature for 1 h, then 50 μL 0.3 ng/mL Streptavidin-HRP was added to each well. The plates were incubated for 30 minutes at room temperature. Finally, the plates were treated with streptavidin-HRP followed by addition of the ELISA ECL substrate to produce chemiluminescence that can be measured using a chemiluminescence reader. Inhibition of the tested compound to PARP1/2 enzyme activity was calculated according to the following formula. [formula] IC50 value is obtained by fitting the s-shaped dose response curve equation by using XL Fit software.

Another test deals with MDA-MB-436 cells. The test is described as follows: Growth inhibition assay against BRCA mutant human breast cancer MDA-MB-436 cell line (CCK-8, 7 days). Type of test: cell-based. The note with it: 168 h, MDA-MB-436, 7 days, read-out: IC50 (nM), proliferation of human breast cancer cells MDA-MB-436. Put shortly:
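Seeded 3000 cells/well overnight, then exposed to test compound (0.10% DMSO control) for 7 days at 37 °C, 5% CO2, with compound-containing medium changed on day 4. CCK-8 added for 4 h; OD = A450 − A650. Survival % relative to DMSO after background subtraction, plotted against concentration for IC50.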

Test [2] has as its target recombinant poly(ADP-ribose) polymerase 1 (PARP1) (Homo sapiens, UniProt P09874). Put plainly: PARP1 chemiluminescent assay. Format: biochemical. As to conditions: PARP1 enzyme activity, chemiluminescence, 40 ng enzyme/well. The method, then: as §1
A further test concerns the target T1, PDE3A (Homo sapiens, UniProt Q14432).
T1 construct: purchased Sino Biological 11908-H20B1
Put plainly: PDE3A fluorescence polarization (FP) assay. As to conditions: 2 nM PDE3A, 0.2 μM FAM-cAMP, read-out: IC50 (μM), PDE3A enzyme activity. Format: biochemical. The protocol: A PDE3A fluorescence polarization (FP) assay in a multi-step format was performed using black, round bottom 384-well plates (Corning, 4514). The testing compounds were serially diluted from stock solutions to 11 concentrations with a 3-fold dilution factor using DMSO. Fifty nL of compound dilutions was mixed with 5 μL of reaction buffer (10 mM Tris-HCl, pH 7.2, 10 mM MgCl2, 0.05% NaN3, 0.1% phosphate-free BSA) containing 0.2 μM FAM-cAMP (BPS, 60200) and 2 nM PDE3A (Sino Biological, 11908-H20B1) enzyme, and incubated for 60 min at 25° C. Afterwards, 15 μL binding agent mixture (Molecular Devices, R8124) was added to each well and the plate was incubated for 60 min at 25° C. The plate was loaded to a BMG PHERAstar FSX to read Fluorescence Polarization (FP) values at a setting of: Ex: 485 nm and Em: 520 nm. Emission light intensity with polarizers parallel (Em|) and emission light intensity with polarizers perpendicular (Em⊥) were recorded. The Polarization (mP) values were calculated using the following formula: mP=(SignalEm|−SignalEm⊥)/(SignalEm|+SignalEm⊥).
Data analysis: • 1) The inhibition % of a compound dose is calculated as:
[formula] • wherein mPMin and mPMax refer to the polarization readings in the condition of substrate only and substrate+enzyme, respectively. • 2) The IC50 values were calculated from non-linear curve fitting using following regression equation using a commercial curve fitting software GraphPad Prism 9.2.0.
wherein X refers to Log of compound concentration and Y refers to % Inhibition.
Table 3 summarize the inhibitory effects of compounds on PDE3A enzyme activity (IC50).

T1 sequence (Q14432 669-1141 limits assumed): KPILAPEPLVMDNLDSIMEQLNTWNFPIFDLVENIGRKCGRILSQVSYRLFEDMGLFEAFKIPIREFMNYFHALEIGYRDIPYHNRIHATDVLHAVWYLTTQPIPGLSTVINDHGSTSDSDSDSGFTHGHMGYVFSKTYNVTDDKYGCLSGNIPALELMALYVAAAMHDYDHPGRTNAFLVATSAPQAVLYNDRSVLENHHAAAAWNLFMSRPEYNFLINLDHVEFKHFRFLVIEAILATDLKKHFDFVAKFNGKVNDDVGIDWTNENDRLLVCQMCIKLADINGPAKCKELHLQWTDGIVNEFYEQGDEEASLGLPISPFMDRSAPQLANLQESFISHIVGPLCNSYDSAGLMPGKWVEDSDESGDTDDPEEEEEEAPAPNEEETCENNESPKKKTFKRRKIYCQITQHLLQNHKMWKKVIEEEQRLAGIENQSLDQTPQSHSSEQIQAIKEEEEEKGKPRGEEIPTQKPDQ
Sequence of recombinant poly(ADP-ribose) polymerase 2 (PARP2) (Q9UGN5 whole entry): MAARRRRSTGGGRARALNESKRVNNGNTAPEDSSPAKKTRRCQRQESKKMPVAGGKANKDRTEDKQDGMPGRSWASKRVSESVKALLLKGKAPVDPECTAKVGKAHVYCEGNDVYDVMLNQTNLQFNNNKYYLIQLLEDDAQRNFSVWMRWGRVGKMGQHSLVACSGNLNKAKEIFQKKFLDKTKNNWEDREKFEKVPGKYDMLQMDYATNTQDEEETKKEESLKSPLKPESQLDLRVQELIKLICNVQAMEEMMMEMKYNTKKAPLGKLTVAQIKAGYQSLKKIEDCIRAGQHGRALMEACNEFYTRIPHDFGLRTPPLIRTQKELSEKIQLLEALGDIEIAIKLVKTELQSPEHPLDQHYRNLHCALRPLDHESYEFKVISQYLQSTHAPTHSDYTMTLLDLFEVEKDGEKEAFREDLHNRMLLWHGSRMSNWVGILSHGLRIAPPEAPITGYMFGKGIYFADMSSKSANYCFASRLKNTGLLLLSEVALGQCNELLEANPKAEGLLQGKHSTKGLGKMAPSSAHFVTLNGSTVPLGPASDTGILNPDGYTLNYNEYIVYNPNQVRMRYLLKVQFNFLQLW
Sequence of recombinant poly(ADP-ribose) polymerase 1 (PARP1) (P09874 whole entry): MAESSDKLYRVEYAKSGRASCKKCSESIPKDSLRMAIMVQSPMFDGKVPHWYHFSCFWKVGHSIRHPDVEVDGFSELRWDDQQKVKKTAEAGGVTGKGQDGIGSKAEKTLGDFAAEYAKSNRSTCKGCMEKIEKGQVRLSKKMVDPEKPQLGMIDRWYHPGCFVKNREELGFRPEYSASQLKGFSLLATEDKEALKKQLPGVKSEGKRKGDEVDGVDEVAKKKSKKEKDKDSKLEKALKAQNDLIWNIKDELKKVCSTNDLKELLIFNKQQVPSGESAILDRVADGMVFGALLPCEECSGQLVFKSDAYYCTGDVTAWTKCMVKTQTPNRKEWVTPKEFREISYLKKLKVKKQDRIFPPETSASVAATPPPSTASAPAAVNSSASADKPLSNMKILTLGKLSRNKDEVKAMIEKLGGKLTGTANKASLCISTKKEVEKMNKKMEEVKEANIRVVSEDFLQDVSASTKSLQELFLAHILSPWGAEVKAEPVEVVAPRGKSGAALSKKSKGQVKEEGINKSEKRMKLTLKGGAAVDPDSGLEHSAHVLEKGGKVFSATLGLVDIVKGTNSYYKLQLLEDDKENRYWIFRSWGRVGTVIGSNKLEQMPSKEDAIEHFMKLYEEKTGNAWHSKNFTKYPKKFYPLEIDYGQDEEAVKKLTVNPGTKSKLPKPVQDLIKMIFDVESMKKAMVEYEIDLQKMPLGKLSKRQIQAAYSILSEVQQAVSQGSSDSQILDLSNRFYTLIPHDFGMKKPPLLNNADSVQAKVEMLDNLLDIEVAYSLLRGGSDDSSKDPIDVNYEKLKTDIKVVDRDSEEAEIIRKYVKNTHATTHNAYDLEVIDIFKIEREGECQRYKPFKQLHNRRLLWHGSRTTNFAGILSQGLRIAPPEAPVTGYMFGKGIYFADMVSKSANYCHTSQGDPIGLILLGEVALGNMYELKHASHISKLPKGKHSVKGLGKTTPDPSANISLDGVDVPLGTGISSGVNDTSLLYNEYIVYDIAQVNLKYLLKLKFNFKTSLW

`CNC(=O)c1ccc(-n2cc3c(n2)CN(Cc2ccc4c([nH]c(=O)c5c(C(F)(F)F)cnn54)c2F)C3)cn1` [Example 25, 5-(5-((6-fluoro-4-oxo-3-(trifluoromethyl)-4,5-dihydropyrazolo[1,5-a]quinoxalin-7-yl)methyl)-5,6-dihydropyrrolo[3,4-c]pyrazol-2(4H)-yl)-N-methylpicolinamide]: the IC50 in test [1] is 21 nM; in the test on MDA-MB-436 cells, 4.75 nM; in test [2], 0.26 nM.

Turning to `CNC(=O)c1ccc(-n2cc3c(c2)CN(Cc2ccc4c([nH]c(=O)c5c(F)cnn54)c2F)C3)cn1` [Example 48, 5-(5-((3,6-difluoro-4-oxo-4,5-dihydropyrazolo[1,5-a]quinoxalin-7-yl)methyl)-5,6-dihydropyrrolo[3,4-c]pyrrol-2(4H)-yl)-N-methylpicolinamide], the figures for the IC50 (in test [1]; in the test with MDA-MB-436 cells; at PDE3A) were 48 nM, 0.38 nM and over 30 µM, respectively.

For `CNC(=O)c1ccc(-n2cc3c(n2)CN(Cc2ccc4c([nH]c(=O)n5cc(C)nc45)c2F)C3)c(F)n1` [Example 51, 6-fluoro-5-(5-((7-fluoro-2-methyl-5-oxo-5,6-dihydroimidazo[1,2-c]quinazolin-8-yl)methyl)-5,6-dihydropyrrolo[3,4-c]pyrazol-2(4H)-yl)-N-methylpicolinamide], the IC50 in test [1] was over 10000 nM; in the test on MDA-MB-436 cells it was 1.51 nM; at PDE3A, over 30 µM.

`CNC(=O)c1ccc(-n2cc3c(n2)CN(Cc2ccc4c([nH]c(=O)c5occc54)c2F)C3)c(F)n1` [Example 54, 6-fluoro-5-(5-((6-fluoro-4-oxo-4,5-dihydrofuro[2,3-c]quinolin-7-yl)methyl)-5,6-dihydropyrrolo[3,4-c]pyrazol-2(4H)-yl)-N-methylpicolinamide]: the IC50 was 255 nM in test [1], 1.47 nM in the test on MDA-MB-436 cells and over 30 µM on PDE3A.

Consider `CCNC(=O)c1ccc(-n2cc3c(n2)CN(Cc2ccc4c([nH]c(=O)c5occc54)c2F)C3)c(F)n1` [Example 55, N-ethyl-6-fluoro-5-(5-((6-fluoro-4-oxo-4,5-dihydrofuro[2,3-c]quinolin-7-yl)methyl)-5,6-dihydropyrrolo[3,4-c]pyrazol-2(4H)-yl)picolinamide], for which the IC50 in test [1] was 403 nM; in the test with MDA-MB-436 cells it was 0.81 nM; at PDE3A it was over 30 µM.

As for `CCNC(=O)c1ccc(-n2cc3c(n2)CN(Cc2ccc4c([nH]c(=O)c5cc(F)nn54)c2F)C3)c(F)n1` [Example 57, 5-(5-((2,6-difluoro-4-oxo-4,5-dihydropyrazolo[1,5-a]quinoxalin-7-yl)methyl)-5,6-dihydropyrrolo[3,4-c]pyrazol-2(4H)-yl)-N-ethyl-6-fluoropicolinamide], the IC50 in test [1] is over 10000 nM; with MDA-MB-436 cells, 1.56 nM; at PDE3A, over 30 µM.
